Measurements from US8658661B2, “Oxadiazole inhibitors of leukotriene production” (Boehringer Ingelheim International GmbH, priority 2010, dated 2014).

Assays:
[1] = test system: synthesis of LTB4 in human whole blood; test: Human whole blood assay (inhibition of LTB4 synthesis, calcimycin stimulated); format: cell-based; conditions: heparinized human whole blood, calcimycin 20 μM, plasma LTB4
Procedure: Compounds are additionally tested in a human whole blood assay to determine their ability to inhibit the synthesis of LTB4 in a cellular system. Compounds are combined with heparinized human whole blood and incubated for 15 minutes at 37° C. Calcimycin (20 μM final, prepared in phosphate-buffered saline, pH 7.4) is then added and the mixture is incubated for another 30 minutes at 37° C. The samples are centrifuged for 5 min at low speed (1500×g) and the plasma layer is removed. Plasma LTB4 concentrations are then measured using an antibody-based homogenous time-resolved fluorescence method (CisBio, Bedford, Mass.).

[2] = target: T1, recombinant human FLAP protein (Homo sapiens, UniProt P20292); test: FLAP binding assay (SPA, displacement of [125I]L-691,831); conditions: for IC50: membranes of sf9 cells expressing recombinant human FLAP, [125I]L-691,831 probe, read-out: FLAP binding IC50
T1 construct: made in house; host or cells: Sf9 insect cells (100,000×g membrane pellet used)
T1 sequence (P20292 1-161): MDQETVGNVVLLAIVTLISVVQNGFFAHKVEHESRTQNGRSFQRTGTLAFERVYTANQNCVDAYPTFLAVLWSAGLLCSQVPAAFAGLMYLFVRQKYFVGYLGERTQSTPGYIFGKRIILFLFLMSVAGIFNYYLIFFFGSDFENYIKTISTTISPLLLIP
Procedure: Assessment of Biological Properties 1. Binding Assay
Compounds are assessed for the ability to bind to FLAP in a binding assay that measures compound-specific displacement of an iodinated (^125I) FLAP inhibitor via a Scintillation Proximity Assay format (adapted from S. Charleson et al., Mol. Pharmacol., 1992, 41, 873-879).
Cell pellets produced from sf9 insect cells expressing recombinant human FLAP protein are resuspended in buffer A [15 mM Tris-HCl (pH 7.5), 2 mM MgCl2, 0.3 mM EDTA, 1 mM PMSF]. The cells are lysed with a Dounce homogenizer and the material is centrifuged at 10,000×g for 10 minutes. The supernatant is then collected and centrifuged at 100,000×g for 60 minutes. To prepare membrane protein for an assay, an aliquot of the 100,000×g pellet is resuspended in 1 ml of buffer A, Dounce homogenized, and finally subjected to polytron mixing (30 seconds). Membrane protein (25 μl, 5 μg) is mixed with WGA SPA beads (Amersham) and stirred for 1 h. […] (final concentrations: beads, 200 μg/well; protein, 5 μg/well; [^125I] probe, 0 08 nM/well (17 nCi/well). The plates are shaken for 2 h before reading on a Microbeta plate reader. Non-specific binding is determined by the addition of 10 μM cold L-691,831 compound.

SMILES: CC(C)C(C)(c1ccc(-c2cnc(N)nc2)cc1)c1noc(-c2ccc(C(N)=O)nc2)n1 (centres unmarked) [Example 125, 5-(3-{2-[4-(2-aminopyrimidin-5-yl)phenyl]-3-methylbutan-2-yl}-1,2,4-oxadiazol-5-yl)pyridine-2-carboxamide]
- IC50 [1]: 290 nM
- IC50 [2]: 1.5 nM

SMILES: CC(C)C(C)(c1ccc(-c2cnc(N)nc2)cc1)c1noc(O)n1 (centres unmarked) [Example 88, 3-{1-[4-(2-Amino-pyrimidin-5-yl)-phenyl]-1,2-dimethyl-propyl}-[1,2,4]oxadiazol-5-ol]
- IC50 [1]: > 5000 nM
- inhibition at 1 µM ([2]; at 1000 nM, read-out: FLAP binding % inh @ 1000 nM): 51%

SMILES: CC(C)C(C)(c1ccc(-c2cnc(N)nc2)cc1)c1noc(N2CCN(C(=O)N(C)C)CC2)n1 (centres unmarked) [Example 269, 4-(3-{1-[4-(2-Amino-pyrimidin-5-yl)-phenyl]-1,2-dimethyl-propyl}-[1,2,4]oxadiazol-5-yl)-piperazine-1-carboxylic acid dimethylamide]
- IC50 [1]: 230 nM
- IC50 [2]: 24 nM

SMILES: Cc1cc(-c2ccc([C@](C)(c3noc(-c4cnn(C)c4)n3)C3CC3)cc2)cnc1N [Example 185, 5-(4-{(R)-1-Cyclopropyl-1-[5-(1-methyl-1H-pyrazol-4-yl)-[1,2,4]oxadiazol-3-yl]-ethyl}-phenyl)-3-methyl-pyridin-2-ylamine]
- IC50 [1]: 28 nM
- IC50 [2]: 1.9 nM

SMILES: COc1ccc(-c2nc(C(C)(c3ccc(-c4cnc(N)nc4)cc3)C(C)C)no2)cn1 (centres unmarked) [Example 8, 5-(4-{2-[5-(6-methoxypyridin-3-yl)-1,2,4-oxadiazol-3-yl]-3-methylbutan-2-yl}phenyl)pyrimidin-2-amine]
- IC50 [1]: 530 nM
- IC50 [2]: 3.8 nM

SMILES: CC(C)C(C)(c1ccc(-c2cnc(N)nc2)cc1)c1noc(C2(C)CCCC2)n1 (centres unmarked) [Example 117, 5-(4-{3-methyl-2-[5-(1-methylcyclopentyl)-1,2,4-oxadiazol-3-yl]butan-2-yl}phenyl)pyrimidin-2-amine]
- IC50 [1]: 1200 nM
- IC50 [2]: 31 nM

SMILES: CC(C)[C@@](C)(c1ccc(-c2cnc(N)nc2)cc1)c1noc(-c2ccnn2C)n1 [Example 32, 5-(4-{(2S)-3-methyl-2-[5-(1-methyl-1H-pyrazol-5-yl)-1,2,4-oxadiazol-3-yl]butan-2-yl}phenyl)pyrimidin-2-amine]
- IC50 [1]: 2500 nM
- IC50 [2]: 18 nM

SMILES: CC(C)C(C)(c1ccc(-c2cnc(N)nc2)cc1)c1noc(-c2ccc(C(F)(F)F)nc2)n1 (centres unmarked) [Example 136, 5-[4-(3-methyl-2-{5-[6-(trifluoromethyl)pyridin-3-yl]-1,2,4-oxadiazol-3-yl}butan-2-yl)phenyl]pyrimidin-2-amine]
- IC50 [1]: 320 nM
- IC50 [2]: 5.4 nM

SMILES: Cn1cc(-c2nc(C(C)(c3ccc(-c4cnc5c(c4)CCN5)cc3)C3CC3)no2)cn1 (centres unmarked) [Example 256, 5-(4-{1-Cyclopropyl-1-[5-(1-methyl-1H-pyrazol-4-yl)-[1,2,4]oxadiazol-3-yl]-ethyl}-phenyl)-2,3-dihydro-1H-pyrrolo[2,3-b]pyridine]
- IC50 [1]: 51 nM
- IC50 [2]: 4.5 nM

SMILES: CC(C)C(C)(c1ccc(-c2cnc(N)nc2)cc1)c1noc(-c2ncc[nH]2)n1 (centres unmarked) [Example 20, 5-(4-{2-[5-(1H-imidazol-2-yl)-1,2,4-oxadiazol-3-yl]-3-methylbutan-2-yl}phenyl)pyrimidin-2-amine]
- IC50 [1]: 3200 nM
- IC50 [2]: 10 nM

SMILES: CC(C)C(C)(c1ccc(-c2cnc(N)nc2)cc1)c1noc(N2CCN(C)C(=O)C2)n1 (centres unmarked) [Example 202, 4-(3-{1-[4-(2-Amino-pyrimidin-5-yl)-phenyl]-1,2-dimethyl-propyl}-[1,2,4]oxadiazol-5-yl)-1-methyl-piperazin-2-one]
- IC50 [1]: 350 nM
- IC50 [2]: 46 nM

SMILES: CN(C)C(=O)Cn1cc(-c2nc([C@@](C)(c3ccc(-c4cnc(N)cn4)cc3)C3CC3)no2)cn1 [Example 176, 2-[4-(3-{(R)-1-[4-(5-Amino-pyrazin-2-yl)-phenyl]-1-cyclopropyl-ethyl}-[1,2,4]oxadiazol-5-yl)pyrazol-1-yl]-N,N-dimethyl-acetamide]
- IC50 [1]: 73 nM
- IC50 [2]: 1.2 nM

SMILES: CC(C)C(C)(c1ccc(-c2cnc(N)nc2)cc1)c1noc(N2CCN(C)CC2)n1 (centres unmarked) [Example 96, 5-(4-{3-methyl-2-[5-(4-methylpiperazin-1-yl)-1,2,4-oxadiazol-3-yl]butan-2-yl}phenyl)pyrimidin-2-amine]
- IC50 [1]: 150 nM
- IC50 [2]: 7.5 nM

SMILES: CC(C)C(C)(c1ccc(-c2cnc(N)nc2)cc1)c1noc(N2CCS(=O)(=O)CC2)n1 (centres unmarked) [Example 168, 5-(4-{1-[5-(1,1-Dioxo-1lambda6-thiomorpholin-4-yl)-[1,2,4]oxadiazol-3-yl]-1,2-dimethyl-propyl}-phenyl)-pyrimidin-2-ylamine]
- IC50 [1]: 390 nM
- IC50 [2]: 21 nM

SMILES: CC(C)C(C)(c1ccc(-c2cnc(N)nc2)cc1)c1noc(N2CCC(C(N)=O)CC2)n1 (centres unmarked) [Example 213, 1-(3-{1-[4-(2-Amino-pyrimidin-5-yl)-phenyl]-1,2-dimethyl-propyl}-[1,2,4]oxadiazol-5-yl)-piperidine-4-carboxylic acid amide]
- IC50 [1]: 330 nM
- IC50 [2]: 14 nM

SMILES: CNC(=O)Cn1cc(-c2nc(C(C)(c3ccc(-c4cnc(N)nc4)cc3)C3CCC3)no2)cn1 (centres unmarked) [Example 98, 2-[4-(3-{1-[4-(2-aminopyrimidin-5-yl)phenyl]-1-cyclobutylethyl}-1,2,4-oxadiazol-5-yl)-1H-pyrazol-1-yl]-N-methylacetamide]
- IC50 [1]: 570 nM
- IC50 [2]: 12 nM

SMILES: Cc1ccc(-c2nc(C(C)(C)c3ccc(-c4cnc(N)nc4)cc3)no2)cn1 [Example 37, 5-(4-{2-[5-(6-methylpyridin-3-yl)-1,2,4-oxadiazol-3-yl]propan-2-yl}phenyl)pyrimidin-2-amine]
- IC50 [1]: 250 nM
- IC50 [2]: 7.4 nM

SMILES: C[C@@](c1ccc(-c2cnc(N)nc2)cc1)(c1noc(-c2cnn(C3COC3)c2)n1)C1CCC1 [Example 102, 5-{4-[(1R)-1-cyclobutyl-1-{5-[1-(oxetan-3-yl)-1H-pyrazol-4-yl]-1,2,4-oxadiazol-3-yl}ethyl]phenyl}pyrimidin-2-amine]
- IC50 [1]: 51 nM
- IC50 [2]: 1.6 nM

SMILES: CC(C)C(C)(c1ccc(-c2cnc(N)nc2)cc1)c1noc(-c2c[nH]cn2)n1 (centres unmarked) [Example 126, 5-(4-{2-[5-(1H-imidazol-4-yl)-1,2,4-oxadiazol-3-yl]-3-methylbutan-2-yl}phenyl)pyrimidin-2-amine]
- IC50 [1]: 260 nM
- IC50 [2]: 4.6 nM

SMILES: CC(C)(O)CNc1cnc(-c2nc([C@](C)(c3ccc(-c4cnc(N)nc4)cc3)C3CC3)no2)cn1 [Example 51, 1-{[5-(3-{(1S)-1-[4-(2-aminopyrimidin-5-yl)phenyl]-1-cyclopropylethyl}-1,2,4-oxadiazol-5-yl)pyrazin-2-yl]amino}-2-methylpropan-2-ol]
- IC50 [1]: 140 nM
- IC50 [2]: 3.9 nM

SMILES: CN(C)C(=O)Cn1cc(-c2nc([C@](C)(c3ccc(-c4cnc5c(c4)OCCN5)cc3)C3CC3)no2)cn1 [Example 255, 2-[4-(3-{(S)-1-Cyclopropyl-1-[4-(3,4-dihydro-2H-pyrido[3,2-b][1,4]oxazin-7-yl)-phenyl]-ethyl}-[1,2,4]oxadiazol-5-yl)-pyrazol-1-yl]-N,N-dimethyl-acetamide]
- IC50 [1]: 1800 nM
- IC50 [2]: 15 nM

SMILES: C[C@](c1ccc(-c2cnc(N)cn2)cc1)(c1noc(-c2cnc(N3CCNCC3)cn2)n1)C1CC1 [Example 214, 5-(4-{(S)-1-Cyclopropyl-1-[5-(3,4,5,6-tetrahydro-2H-[1,2′]bipyrazinyl-5′-yl)-[1,2,4]oxadiazol-3-yl]-ethyl}-phenyl)-pyrazin-2-ylamine]
- IC50 [1]: 450 nM
- IC50 [2]: 12 nM

SMILES: C[C@](c1ccc(-c2cnc(N)nc2)cc1)(c1noc(-c2cnc(N3CCNCC3)cn2)n1)C1CC1 [Example 267, 5-(4-{(S)-1-Cyclopropyl-[5-(3,4,5,6-tetrahydro-2H-[1,2′]bipyrazinyl-5′-yl)-[1,2,4]oxadiazol-3-yl]-ethyl}-phenyl)-pyrimidin-2-ylamine]
- IC50 [1]: 390 nM
- IC50 [2]: 12 nM

SMILES: CC(C)C(C)(c1ccc(-c2cnc(N)nc2)cc1)c1noc(C(=O)N2CCN(C)CC2)n1 (centres unmarked) [Example 91, (3-{2-[4-(2-aminopyrimidin-5-yl)phenyl]-3-methylbutan-2-yl}-1,2,4-oxadiazol-5-yl)(4-methylpiperazin-1-yl)methanone]
- IC50 [1]: 1300 nM
- IC50 [2]: 54 nM

SMILES: COCCn1cc(-c2nc([C@@](C)(c3ccc(-c4cnc(N)cn4)cc3)C3CC3)no2)cn1 [Example 191, 5-[4-((R)-1-Cyclopropyl-1-{5-[1-(2-methoxy-ethyl)-1H-pyrazol-4-yl]-[1,2,4]oxadiazol-3-yl}-ethyl)-phenyl]-pyrazin-2-ylamine]
- IC50 [1]: 17 nM
- IC50 [2]: 5.9 nM
